Laboratory results from US10343992B2, “1-cyano-pyrrolidine compounds as USP30 inhibitors” (MISSION THERAPEUTICS LIMITED, priority 2015, dated 2019).
pIC50: −log10 of the molar value.

Target: USP30 (Homo sapiens (Human), UniProt Q70CQ3)
Experiment: USP30 biochemical FP or FI IC50 assay
Conditions: read-out: IC50 range
Outline: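 Human USP30 preincubated 30 min at room temperature with compound (8-point series, 100 µM top final) in Tris pH 7.5, Tween 20, BSA, 5 mM β-mercaptoethanol, in duplicate. FP format: 50 nM TAMRA-peptide–isopeptide-ubiquitin substrate, ex 540/em 590. FI format: 100 nM ubiquitin-rhodamine 110, ex 487/em 535. Both read at 0 and after 2 h at room temperature.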

USP30, sequence (Q70CQ3 57-517): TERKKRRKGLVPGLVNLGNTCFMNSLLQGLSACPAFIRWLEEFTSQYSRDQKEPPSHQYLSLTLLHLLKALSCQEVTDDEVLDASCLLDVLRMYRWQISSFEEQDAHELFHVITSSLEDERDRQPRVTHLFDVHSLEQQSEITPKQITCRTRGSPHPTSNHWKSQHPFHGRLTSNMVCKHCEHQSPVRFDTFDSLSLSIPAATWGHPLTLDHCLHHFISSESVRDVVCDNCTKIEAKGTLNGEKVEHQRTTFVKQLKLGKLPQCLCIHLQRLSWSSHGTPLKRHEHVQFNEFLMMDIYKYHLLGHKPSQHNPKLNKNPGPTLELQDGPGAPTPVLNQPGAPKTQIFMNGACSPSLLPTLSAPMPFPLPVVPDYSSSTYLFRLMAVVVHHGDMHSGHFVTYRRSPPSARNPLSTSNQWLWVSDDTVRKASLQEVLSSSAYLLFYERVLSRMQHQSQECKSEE

Compound | pIC50
Cn1cc(-c2ccc3cc(C(=O)N[C@@H]4CCN(C#N)C4)n(C)c3c2)cn1 [Example 229, (R)-N-(1-cyanopyrrolidin-3-yl)-1-methyl-6-(1-methyl-1H-pyrazol-4-yl)-1H-indole-2-carboxamide] | 6.00 to 7.00
CN(C(=O)Nc1ccnc(N2Cc3ccccc3C2)c1)[C@@H]1CCN(C#N)C1 [Example 231, (R)-1-(1-cyanopyrrolidin-3-yl)-3-(2-(isoindolin-2-yl)pyridin-4-yl)-1-methylurea] | 6.00 to 7.00
Cn1cc(-c2ccc3c(c2)c(F)c(C(=O)N[C@@H]2CCN(C#N)C2)n3C)cn1 [Example 232, (R)-N-(1-cyanopyrrolidin-3-yl)-3-fluoro-1-methyl-5-(1-methyl-1H-pyrazol-4-yl)-1H-indole-2-carboxamide] | > 7.00
Cn1cc(-c2ccn3c(C(=O)N[C@@H]4CCN(C#N)C4)ncc3c2)cn1 [Example 233, (R)-N-(1-cyanopyrrolidin-3-yl)-7-(1-methyl-1H-pyrazol-4-yl)imidazo[1,5-a]pyridine-3-carboxamide] | 6.00 to 7.00
N#CN1CC[C@@H](NC(=O)N2CC(c3ccn(-c4ccccc4)n3)C2)C1 [Example 234, (R)-N-(1-cyanopyrrolidin-3-yl)-3-(1-phenyl-1H-pyrazol-3-yl)azetidine-1-carboxamide] | > 7.00
N#CN1CC[C@@H](NC(=O)N2CC(c3ccn(-c4cnccn4)n3)C2)C1 [Example 235, (R)-N-(1-cyanopyrrolidin-3-yl)-3-(1-(pyrazin-2-yl)-1H-pyrazol-3-yl)azetidine-1-carboxamide] | 6.00 to 7.00
N#CN1CC[C@@H](NC(=O)N2CC(c3ccnc(-c4ccccc4)n3)C2)C1 [Example 236, (R)-N-(1-cyanopyrrolidin-3-yl)-3-(2-phenylpyrimidin-4-yl)azetidine-1-carboxamide] | 6.00 to 7.00
N#CN1CC[C@@H](NC(=O)N2CC(c3ccnc(-c4ccc(Cl)cc4)n3)C2)C1 [Example 237, (R)-3-(2-(4-chlorophenyl)pyrimidin-4-yl)-N-(1-cyanopyrrolidin-3-yl)azetidine-1-carboxamide] | > 7.00
N#CN1CC[C@@H](NC(=O)N2CC(OCc3ccccc3)(c3ccccc3)C2)C1 [Example 238, (R)-3-(benzyloxy)-N-(1-cyanopyrrolidin-3-yl)-3-phenylazetidine-1-carboxamide] | > 7.00
N#CN1CC[C@@H](NC(=O)c2ccc3c(c2)CCN3c2nccc(C3CC3)n2)C1 [Example 239, (R)-N-(1-cyanopyrrolidin-3-yl)-1-(4-cyclopropylpyrimidin-2-yl)indoline-5-carboxamide] | > 7.00
CN(C(=O)c1ccc2c(c1)CCN2c1nccc(C2CC2)n1)[C@@H]1CCN(C#N)C1 [Example 240, (R)-N-(1-cyanopyrrolidin-3-yl)-1-(4-cyclopropylpyrimidin-2-yl)-N-methylindoline-5-carboxamide] | > 7.00
Cc1cc(-c2cccc(NC(=O)N3CC[C@@H]4CN(C#N)C[C@@H]43)c2)ccn1 [Example 241, (3aR,6aR)-5-cyano-N-(3-(2-methylpyridin-4-yl)phenyl)hexahydropyrrolo[3,4-b]pyrrole-1(2H)-carboxamide] | > 7.00
Cc1cc(-c2ccc(NC(=O)N3CC[C@@H]4CN(C#N)C[C@@H]43)cc2)ccn1 [Example 242, (3aR,6aR)-5-cyano-N-(4-(2-methylpyridin-4-yl)phenyl)hexahydropyrrolo[3,4-b]pyrrole-1(2H)-carboxamide] | > 7.00
Cc1cc(-c2ccc(NC(=O)N3CC[C@@H]4CN(C#N)C[C@@H]43)c(F)c2)ccn1 [Example 243, (3aR,6aR)-5-cyano-N-(2-fluoro-4-(2-methylpyridin-4-yl)phenyl)hexahydropyrrolo[3,4-b]pyrrole-1(2H)-carboxamide] | 6.00 to 7.00
Cc1cc(-c2ccc(NC(=O)N3CC[C@@H]4CN(C#N)C[C@@H]43)nc2)ccn1 [Example 244, (3aR,6aR)-5-cyano-N-(2′-methyl-[3,4′-bipyridin]-6-yl)hexahydropyrrolo[3,4-b]pyrrole-1(2H)-carboxamide] | > 7.00
Cn1cc(-c2ccc(NC(=O)N3CC[C@@H]4CN(C#N)C[C@@H]43)c(F)c2)cn1 [Example 245, (3aR,6aR)-5-cyano-N-(2-fluoro-4-(1-methyl-1H-pyrazol-4-yl)phenyl)hexahydropyrrolo[3,4-b]pyrrole-1(2H)-carboxamide] | 6.00 to 7.00
N#CN1C[C@H]2CCN(C(=O)N3CC(Oc4ccccc4)C3)[C@H]2C1 [Example 247, (3aR,6aR)-1-(3-phenoxyazetidine-1-carbonyl)hexahydropyrrolo[3,4-b]pyrrole-5(1H)-carbonitrile] | 6.00 to 7.00
N#CN1CCCC(NC(=O)c2cccc(-c3ccccc3)c2)C1 (centres unmarked) [Example 248, N-(1-cyanopiperidin-3-yl)-[1,1′-biphenyl]-3-carboxamide] | 5.00 to 6.00
N#CN1CCCC(NC(=O)Nc2cccc(Oc3ccccc3)c2)C1 (centres unmarked) [Example 250, 1-(1-cyanopiperidin-3-yl)-3-(3-phenoxyphenyl)urea] | 5.00 to 6.00
N#CN1CCC(NC(=O)Nc2ccc(Cl)cc2Cl)C1 (centres unmarked) [Example 251, 1-(1-cyanopyrrolidin-3-yl)-3-(2,4-dichlorophenyl)urea] | 6.00 to 7.00
N#CN1CCC(NC(=O)Nc2ccc(C(F)(F)F)cc2)C1 (centres unmarked) [Example 252, 1-(1-cyanopyrrolidin-3-yl)-3-(4-(trifluoromethyl)phenyl)urea] | 6.00 to 7.00
N#CN1CCC(NC(=O)Nc2cccc(Cc3ccccc3)c2)C1 (centres unmarked) [Example 253, 1-(3-benzylphenyl)-3-(1-cyanopyrrolidin-3-yl)urea] | 6.00 to 7.00
N#CN1C[C@H]2CCN(C(=O)c3ccc(N4CCOCC4)c(Cl)c3)[C@H]2C1 [Example 268, (3aR,6aR)-1-(3-chloro-4-morpholinobenzoyl)hexahydro-pyrrolo[3,4-b]pyrrole-5(1H)-carbonitrile] | 6.00 to 7.00
(3aR,6aR)-1-(indoline-1-carbonyl)hexahydropyrrolo[3,4-b]pyrrole-5(1H)-carbonitrile [Example 269] | 5.00 to 6.00

Further lines, results first:

pIC50 | Compound
> 7.00 | N#CN1CCC(NC(=O)Nc2cccc(Oc3ccccc3)c2)C1 (centres unmarked) [Example 255, 1-(1-cyanopyrrolidin-3-yl)-3-(3-phenoxyphenyl)urea]
6.00 to 7.00 | CN(C(=O)Nc1cccc(Cc2ccccc2)c1)C1CCN(C#N)C1 (centres unmarked) [Example 256, 3-(3-benzylphenyl)-1-(1-cyanopyrrolidin-3-yl)-1-methylurea]
6.00 to 7.00 | CN(C(=O)Nc1cccc(Cl)c1)C1CCN(C#N)C1 (centres unmarked) [Example 257, 3-(3-chlorophenyl)-1-(1-cyanopyrrolidin-3-yl)-1-methylurea]
> 7.00 | CN(C(=O)Nc1cccc(Oc2ccccc2)c1)C1CCN(C#N)C1 (centres unmarked) [Example 258, 1-(1-cyanopyrrolidin-3-yl)-1-methyl-3-(3-phenoxyphenyl)urea]
> 7.00 | CN(C(=O)Nc1ccc(-c2ccccc2)cc1)C1CCN(C#N)C1 (centres unmarked) [Example 259, 3-([1,1′-biphenyl]-4-yl)-1-(1-cyanopyrrolidin-3-yl)-1-methylurea]
6.00 to 7.00 | CN(C(=O)Nc1ccc(Cl)cc1Cl)C1CCN(C#N)C1 (centres unmarked) [Example 260, 1-(1-cyanopyrrolidin-3-yl)-3-(2,4-dichlorophenyl)-1-methylurea]
6.00 to 7.00 | CN(C(=O)Nc1ccc(C(F)(F)F)cc1)C1CCN(C#N)C1 (centres unmarked) [Example 261, 1-(1-cyanopyrrolidin-3-yl)-1-methyl-3-(4-(trifluoromethyl)phenyl)urea]
6.00 to 7.00 | CN(C(=O)c1cc2cc(-c3cnn(C)c3)ncc2[nH]1)[C@@H]1CCN(C#N)C1 [Example 263, (R)-N-(1-cyanopyrrolidin-3-yl)-N-methyl-5-(1-methyl-1H-pyrazol-4-yl)-1H-pyrrolo[2,3-c]pyridine-2-carboxamide]
6.00 to 7.00 | CN(C(=O)N1CCOC(c2ccccc2)C1)[C@@H]1CCN(C#N)C1 (stereo partly drawn) [Example 264, N-((R)-1-cyanopyrrolidin-3-yl)-N-methyl-2-phenylmorpholine-4-carboxamide]
5.00 to 6.00 | CN(C(=O)N1CCc2ccccc21)[C@@H]1CCN(C#N)C1 [Example 265, (R)-N-(1-cyanopyrrolidin-3-yl)-N-methylindoline-1-carboxamide]
6.00 to 7.00 | CN(C(=O)Nc1ccc(C(F)(F)F)nc1)[C@@H]1CCN(C#N)C1 [Example 266, (R)-1-(1-cyanopyrrolidin-3-yl)-1-methyl-3-(6-(trifluoromethyl)pyridin-3-yl)urea]
6.00 to 7.00 | CN(C(=O)Nc1ccc(Cl)cn1)[C@@H]1CCN(C#N)C1 [Example 267, (R)-3-(5-chloropyridin-2-yl)-1-(1-cyanopyrrolidin-3-yl)-1-methylurea]
6.00 to 7.00 | Cc1cc(-c2cc(C(=O)N[C@@H]3CCN(C#N)C3)on2)ccn1 [Example 270, (R)-N-(1-cyanopyrrolidin-3-yl)-3-(2-methylpyridin-4-yl)isoxazole-5-carboxamide]
> 7.00 | Cc1ccc(-c2cc(C(=O)N[C@@H]3CCN(C#N)C3)on2)cc1C [Example 271, (R)-N-(1-cyanopyrrolidin-3-yl)-3-(3,4-dimethylphenyl)isoxazole-5-carboxamide]
> 7.00 | N#CN1CC[C@@H](NC(=O)c2cc(-c3ccc(F)cc3F)no2)C1 [Example 272, (R)-N-(1-cyanopyrrolidin-3-yl)-3-(2,4-difluorophenyl)isoxazole-5-carboxamide]
6.00 to 7.00 | Cc1cc(-c2cc(C(=O)N(C)[C@@H]3CCN(C#N)C3)on2)ccn1 [Example 273, (R)—N-(1-cyanopyrrolidin-3-yl)-N-methyl-3-(2-methylpyridin-4-yl)isoxazole-5-carboxamide]
> 7.00 | (R)-N-(1-cyanopyrroldidin-3-yl)-6-(3,5-dimethylisoxazol-4-yl)-N-methyl-1H-indole-2-carboxamide [Example 262]
